Data published in patent US20060193786A1, “Pharmaceutical composition for intranasal administration containing a CGRP antagonist” (Boehringer Ingelheim Pharma GmbH & Co. KG, priority 2002, published 2006).

Experiment: Stability testing of more highly concentrated nasal spray solutions
Format: physicochemical
Conditions: for content of active substance (A): as free base
Method: Stability testing of more highly concentrated nasal spray solutions according to the invention:
The total decomposition which is high in some circumstances (particularly at 40° C.) is based on hydrolysis.
The content of active substance (A) given in Table 1 refers in each case to the free base originally weighed out.

[1] = active substance concentration 15, 3-month value, 25° C.
[2] = active substance concentration 15, 3-month value, 40° C.
[3] = active substance concentration 15, 6-month value, 25° C.
[4] = active substance concentration 15, 6-month value, 40° C.
[5] = active substance concentration 15, 6-week value, 25° C.
[6] = active substance concentration 15, 6-week value, 40° C.
[7] = active substance concentration 15, initial value
[8] = active substance concentration 20%, 3-month value, 25° C.
[9] = active substance concentration 20%, 3-month value, 40° C.
[10] = active substance concentration 20%, 6-month value, 25° C.
[11] = active substance concentration 20%, 6-month value, 40° C.
[12] = active substance concentration 20%, 6-week value, 25° C.
[13] = active substance concentration 20%, 6-week value, 40° C.
[14] = active substance concentration 20%, initial value
[15] = active substance concentration 30%, 3-month value, 25° C.
[16] = active substance concentration 30%, 3-month value, 40° C.
[17] = active substance concentration 30%, 6-month value, 25° C.
[18] = active substance concentration 30%, 6-month value, 40° C.
[19] = active substance concentration 30%, 6-week value, 25° C.
[20] = active substance concentration 30%, 6-week value, 40° C.
[21] = active substance concentration 30%, initial value

## NCCCC[C@H](NC(=O)[C@@H](Cc1cc(Br)c(O)c(Br)c1)NC(=O)N1CCC(N2Cc3ccccc3NC2=O)CC1)C(=O)N1CCN(c2ccncc2)CC1 [(A), 1-[N^2-[3,5-dibromo-N-[[4-(3,4-dihydro-2(1H)-oxoquinazolin-3-yl)-1-piperidinyl]carbonyl]-D-tyrosyl]-L-lysyl]-4-(4-pyridinyl)-piperazine]
[1]
  decomposition by oxidation: 0.64%
  overall decomposition: 1.69%
  content of active substance (A): 147.7 mg/mL
[2]
  decomposition by oxidation: 0.55%
  overall decomposition: 8.22%
  content of active substance (A): 139.4 mg/mL
[3]
  decomposition by oxidation: 0.82%
  overall decomposition: 2.07%
  content of active substance (A): 147.7 mg/mL
[4]
  decomposition by oxidation: 0.78%
  overall decomposition: 15.33%
  content of active substance (A): 131.7 mg/mL
[5]
  decomposition by oxidation: 0.72%
  overall decomposition: 1.60%
  content of active substance (A): 148.1 mg/mL
[6]
  decomposition by oxidation: 0.52%
  overall decomposition: 4.46%
  content of active substance (A): 142.3 mg/mL
[7]
  decomposition by oxidation: 0.59%
  overall decomposition: 1.23%
  content of active substance (A): 148.6 mg/mL
[8]
  decomposition by oxidation: 0.53%
  overall decomposition: 1.50%
  content of active substance (A): 202.8 mg/mL
[9]
  decomposition by oxidation: 0.47%
  overall decomposition: 8.23%
  content of active substance (A): 191.4 mg/mL
[10]
  decomposition by oxidation: 0.77%
  overall decomposition: 1.99%
  content of active substance (A): 202 mg/mL
[11]
  decomposition by oxidation: 0.74%
  overall decomposition: 14.61%
  content of active substance (A): 182.8 mg/mL
[12]
  decomposition by oxidation: 0.54%
  overall decomposition: 1.09%
  content of active substance (A): 198.7 mg/mL
[13]
  decomposition by oxidation: 0.55%
  overall decomposition: 3.97%
  content of active substance (A): 192.1 mg/mL
[14]
  decomposition by oxidation: 0.56%
  overall decomposition: 1.27%
  content of active substance (A): 197.9 mg/mL
[15]
  decomposition by oxidation: 0.60%
  overall decomposition: 1.48%
  content of active substance (A): 270 mg/mL
[16]
  decomposition by oxidation: 0.59%
  overall decomposition: 7.81%
  content of active substance (A): 260 mg/mL
[17]
  decomposition by oxidation: 0.91%
  overall decomposition: 2.04%
  content of active substance (A): 273 mg/mL
[18]
  decomposition by oxidation: 0.84%
  overall decomposition: 13.36%
  content of active substance (A): 246 mg/mL
[19]
  decomposition by oxidation: 0.62%
  overall decomposition: 1.19%
  content of active substance (A): 264 mg/mL
[20]
  decomposition by oxidation: 0.58%
  overall decomposition: 3.95%
  content of active substance (A): 260 mg/mL
[21]
  decomposition by oxidation: 0.56%
  overall decomposition: 1.20%
  content of active substance (A): 269 mg/mL
Hydrochloride in aqueous solution, over a long period
  oxidative decomposition: virtually unchanged or increases only slightly
